From patent US4918099A, “Drug, preparation and use thereof” (priority 1985, dated 1990)
“Also recorded” adds a separate entry of the source.

Key:
[1] = tested on: fat pads isolated from rats; assay: Lipogenesis: esterified lipids and free fatty acids in fat pads isolated from rats; assay type: in vivo
Procedure: With (a) untreated (normal) control animals (rats), (b) diabetic rats, and (c) diabetic brazilin treated rats glucose oxidation and lipogenesis were investigated (by means of the esterified lipids and the free fatty acids). Diabetes was induced by intravenous administration of streptozotocin (40 mg/kg live weight). Brazilin was administered intraperitoneally for 15 days (100 mg/kg body weight). Within the same period the same volume of saline solution was administered to the untreated animals of the control group.
The effects of additional brazilin administration on lipogenesis were determined by means of the esterified lipids and free fatty acids formed from 1-^14 C-glucose. The measurements were carried out according to established methods.

[2] = tested on: thrombin stimulated platelets; assay: Malon dialdehyde (MDA) production by thrombin stimulated platelets; assay type: in vivo, rats
Text: Thromboxane A2 is the potent substance inducing platelet aggregation. MDA is formed through the same enzyme system as thromboxane A2. Inhibition of MDA production may be due to the following factors:
(§1) If an inhibiting action on MDA is detectable but no significant influence on the prostacyclin production can be detected, a selective inhibiting action on thromboxane A2 may be inferred.
(§2) Rats were divided into four test groups, viz.
(§3) Group B: Normal rats (8 laboratory animals) to which an aqueous brazilin solution (comprising 110 mg of brazilin per kg body weight) was daily administered from the 20th to the 30th day
(§4) Group D: Diabetic rats (10 laboratory animals); for inducing diabetes, a dose of 70 mg of streptozotocin per kg body weight in 0.1M citrate buffer solution (pH 4.0) was administered intraperitoneally to normal rats on the 1st test day. From the 20th to the 30th day of the test aqueous brazilin solution (comprising 110 mg of brazilin per kg body weight) was daily administered orally to these diabetic rats. (Instead of an aqueous brazilin solution, the same amount of distilled water was administered to the laboratory animals of the groups A and C from the 20th to the 30th day.)
(§5) After expiration of the 30th test day, the test animals were sacrificed, and the MDA production was determined by means of thrombin stimulated platelets.

[3] = Body weight and blood sugar of the rats of the MDA test; assay type: in vivo; conditions: on 30th day
Procedure: as §2, §3, §4

prostacyclin production = assay: Prostacyclin production (6-keto PGF alpha); assay type: in vivo, rats
Procedure: as §1, §2, §3, §4, §5

α-mannosidase = assay: Lysosomal enzyme activity in kidney tissue; assay type: in vivo, mice
Text: (§6) Possibly, the lysosomal glycosidases active in the kidneys are involved in the micro-angiopathy accompanying diabetes mellitus. Therefore, the lysosomal glycosidase activities upon administration of brazilin and full extract were examined.
(§7) A number of mice was divided into three groups. Group I, which was used as control group, remained untreated. To the rest of the mice diabetes was induced by administering alloxan. Part of these diabetic mice remained untreated (diabetic control group II); to the rest of the diabetic mice a dose of 100 mg of brazilin per kg body weight was administered daily. After a test period of 10 and 30 days, respectively, kidney tissue was taken from the laboratory animals and the enzyme fraction was determined. In particular, incubation was carried out for 30 min at 37° C., the reaction was stopped by adding 0.05M glycine-NaOH buffer solution (pH 10.4), centrifugation was carried out at 3000 U/min for 10 min, and the amount of p-nitrophenol formed per min and per mg of protein was determined spectrophotometrically at 410 nm at the supernatant.

β-galactosidase = assay: Lysosomal enzyme activity in kidney tissue; assay type: in vivo, mice
Text: as §6, §7

β-glucuronidase = assay: Lysosomal enzyme activity in kidney tissue; assay type: in vivo, mice
Text: as §6, §7

lysosomal glycosidases = assay: Normalizing effect on lysosomal glycosidases (overall); assay type: in vivo; conditions: kidney, diabetic mice
Text: as §6, §7

blood viscosity = assay: Blood viscosity; assay type: in vivo, rats
Procedure: Increased blood viscosity and reduced erythrocyte deformability are typical pathological states of diabetic subjects. The effect of brazilin administration to diabetic laboratory animals (rats) on the blood viscosity and erythrocyte deformability of these animals was examined.
(§8) For administering brazilin, the laboratory animals were daily injected intraperitoneally with a dose of 100 mg of brazilin per kg body weight for 10 days. For inducing diabetes, a dose of 175 mg of alloxan per kg body weight was administered intraperitoneally.
The blood viscosity was determined by means of heparinized blood samples relative to distilled water at 37°±0.5° C. The time interval required by 2 ml of liquid to pass between two points of a narrow glass capillary was determined.

erythropoesis = assay: Effect on erythropoesis; parameters: species or system rats; conditions: rat, in vivo
Procedure: as §8

[4] = Comparison of synthetic substances with full extract; conditions: synthetically prepared substance

Oc1ccc2c(c1)OC[C@]1(O)Cc3cc(O)c(O)cc3[C@H]21 [brazilin]
effect on the production of free fatty acids ([1]; basal and insulin stimulated): In none of the two cases additional administration of brazilin has any significant effect
restoration of initial production of esterified lipids, basal ([1]; diabetic rats + brazilin): 24.7%
restoration of initial production of esterified lipids, insulin stimulated ([1]; diabetic rats + brazilin, insulin 25 ng/ml): 19.8%
Glucose→FFA (free fatty acids), basal ([1]; diabetic rats + brazilin, n=6, not significant vs diabetic control, diabetic 2.60, normal 3.18): 1.83 ± 0.43 nmol/100 mg tissue/120 min
Glucose→E.L. (esterified lipids), basal ([1]; diabetic rats + brazilin, n=10, P < 0.01 vs. diabetic control, diabetic 78.8, normal 220.8): 113.9 ± 9.5 nmol/100 mg tissue/120 min
Glucose→FFA (free fatty acids), insulin stimulated ([1]; insulin 25 ng/ml, n=6, not significant vs diabetic control, diabetic 3.73, normal 8.42): 3.39 ± 0.76 nmol/100 mg tissue/120 min
Glucose→E.L. (esterified lipids), insulin stimulated ([1]; insulin 25 ng/ml, n=9, P < 0.1 vs diabetic control, diabetic 276.5, normal 528.0): 326.2 ± 18.4 nmol/100 mg tissue/120 min
MDA ([2]; Group B, thrombin 0,2 I. un., normal control 4.16): 0.58 ± 0.30 nmol/10 platelets
MDA ([2]; Group B, thrombin 1,0 I. un., normal control 2.46): 1.02 ± 0.48 nmol/10 platelets
MDA ([2]; Group D, thrombin 0,2 I. un., diabetic control 2.86): 0.76 ± 0.21 nmol/10 platelets
MDA ([2]; Group D, thrombin 1,0 I. un., diabetic control 3.38): 1.10 ± 0.31 nmol/10 platelets
MDA ([2]; normal rats + brazilin 110 mg/kg daily (Group B), thrombin 5,0 I. un., normal control 5.16): 2.20 ± 0.58 nmol/10 platelets
inhibition of MDA production ([2]; rats, 110 mg/kg daily): inhibiting effect on MDA production
Blood sugar ([3]; Group B (normal + brazilin), normal control 79): 77 ± 20.3 mg/100 ml
Body weight ([3]; Group B (normal + brazilin), normal control 222): 226 ± 24.4 g
Blood sugar ([3]; Group D (diabetic + brazilin), 266 on 20th day, diabetic control 337): 165 ± 42.7 mg/100 ml
Body weight ([3]; Group D (diabetic + brazilin), diabetic control 185): 206 ± 9.61 g
6-Keto PG F α (prostacyclin production; diabetic rats + brazilin, diabetic control 0.19): 0.18 ± 0.03 ng/mg
6-Keto PG F α (prostacyclin production; normal rats + brazilin, normal control 0.18): 0.17 ± 0.02 ng/mg
influence on the prostacyclin production (prostacyclin production; rats): no influence on the prostacyclin production could be observed
α-mannosidase activity (α-mannosidase; after 10 days, p < 0.001 vs. Group II (8.60), Group I 8.72): 12.49 ± 1.34
α-mannosidase activity (α-mannosidase; after 30 days, p < 0.001 vs. Group II (5.69), Group I 6.57): 5.99 ± 0.54
β-galactosidase activity (β-galactosidase; after 10 days, p < 0.05 vs. Group II (14.74), Group I 11.53): 12.33 ± 1.95
β-galactosidase activity (β-galactosidase; after 30 days, p < 0.001 vs. Group II (7.39), Group I 8.90): 10.28 ± 0.55
β-glucuronidase activity (β-glucuronidase; after 10 days, p < 0.025 vs. Group II (3.33), Group I 4.82): 4.02 ± 0.65
β-glucuronidase activity (β-glucuronidase; after 30 days, p < 0.05 vs. Group II (2.31), Group I 2.26): 2.49 ± 0.25
effect on the lysosomal glycosidase activity (lysosomal glycosidases): normalizing effect
Viscosity (blood viscosity; alloxan diabetic rats + brazilin, P < 0.05 vs. diabetic control (1.62)): 1.52 ± 0.07 cP
effect on blood viscosity of diabetic animals (blood viscosity; diabetic rats vs. control group): significant decrease of the blood viscosity; also recorded: significant decrease (P<0.05) of blood viscosity
effect on blood viscosity of normal animals (blood viscosity; normal + brazilin vs. normal): No statistical differences
Viscosity (blood viscosity; normal rats + brazilin 100 mg/kg i.p. 10 days, 37° C., normal 1.45): 1.40 ± 0.06 cP
effect on erythropoesis (erythropoesis): no effect on erythropoesis
effects compared with administration of major amounts of full extract [4]: substantially has the same effects
